From patent US6756045B1, “Topically applied idebenone-containing agent with protective and regenerative effect” (priority 1999, dated 2004)

Legend:
[1] = tested on: macrophage LDL oxidation systems; assay: macrophage LDL oxidation system, lipid hydroperoxides by HPLC chemiluminescence; assay type: cell-based; conditions: for antioxidative effect in combination with tocopherol: combined with tocopherol, in the course of time, after 24 hours
Description: In separate pre-tests, idebenone was used in the macrophage LDL oxidation systems as anti-oxidant by way of comparison to alpha-tocopherol, ascorbic acid, coenzyme Q-10 and glutathione. This system is suitable for the simulation of cell-promoted oxidation of lipids induced by lipoxygenase, such as for example occurs due to UV radiation. To determine the antioxidative effect of the individual substances, the amount of primary degradation products of lipid peroxidation, the lipid hydroperoxides, occurring in the course of time after 8 or 24 hours was determined by means of an HPLC chemiluminescence method (E. Wieland et al., Fresenius J. Anal. Chem., 343, 62-63 (1992)). […] The values given in the following tables relate to nmoles of measured lipid hydroperoxides per mg of LDL protein.

tissue = conditions: in the tissue under pro-oxidative conditions; cited from earlier work
[2] = oral administration; cited from earlier work
[3] = oxidation system A (Mk + LDL), 50 μmoles/litre antioxidant, 8 hours
[4] = oxidation system A (Mk + LDL), 50 μmoles/litre antioxidant, 24 hours
[5] = oxidation system B (Mk + LDL + 100 μmoles/liter α-tocopherol), 50 μmoles/litre further antioxidant, 8 hours
[6] = oxidation system B (Mk + LDL + 100 μmoles/liter α-tocopherol), 50 μmoles/litre further antioxidant, 24 hours
[7] = oxidation system A (Mk + LDL), 10 μmoles/litre antioxidant, 8 hours
[8] = oxidation system A (Mk + LDL), 10 μmoles/litre antioxidant, 24 hours
[9] = oxidation system B (Mk + LDL + 100 μmoles/liter α-tocopherol), 10 μmoles/litre further antioxidant, 8 hours
[10] = oxidation system B (Mk + LDL + 100 μmoles/liter α-tocopherol), 10 μmoles/litre further antioxidant, 24 hours

Row | SMILES | antioxidative effect in combination with tocopherol [1] | lipid hydroperoxides [1, 3] | lipid hydroperoxides [1, 4] | lipid hydroperoxides [1, 5] | lipid hydroperoxides [1, 6] | lipid hydroperoxides [1, 7] | lipid hydroperoxides [1, 8] | lipid hydroperoxides [1, 9] | lipid hydroperoxides [1, 10] | other results
1 | O=C1O[C@H]([C@@H](O)CO)C(O)=C1O [ascorbic acid] | significantly lower antioxidative effect | 0 nmoles per mg of LDL protein | 1.7 nmoles per mg of LDL protein | 1.7 nmoles per mg of LDL protein | 25.3 nmoles per mg of LDL protein | – | – | – | – | –
2 | COC1=C(OC)C(=O)C(C/C=C(\C)CC/C=C(\C)CC/C=C(\C)CC/C=C(\C)CC/C=C(\C)CC/C=C(\C)CC/C=C(\C)CC/C=C(\C)CC/C=C(\C)CCC=C(C)C)=C(C)C1=O [coenzyme Q-10] | – | – | – | – | – | 69 nmoles per mg of LDL protein | 115.8 nmoles per mg of LDL protein | 26.8 nmoles per mg of LDL protein | 143.7 nmoles per mg of LDL protein | –
3 | N[C@@H](CCC(=O)N[C@@H](CS)C(=O)NCC(=O)O)C(=O)O [glutathione] | – | 51.7 nmoles per mg of LDL protein | 119.0 nmoles per mg of LDL protein | 23.3 nmoles per mg of LDL protein | 129.8 nmoles per mg of LDL protein | – | – | – | – | –
4 | COC1=C(OC)C(=O)C(CCCCCCCCCCO)=C(C)C1=O [idebenone, 6-(10-hydroxydecyl)-2,3-dimethoxy-5-methyl-1,4-benzoquinone] | reliably intercept the pro-oxidative effect of tocopherol oxidation products | – | – | – | – | 0 nmoles per mg of LDL protein | 0 nmoles per mg of LDL protein | 1.9 nmoles per mg of LDL protein | 2.6 nmoles per mg of LDL protein | antioxidative effect compared to ascorbic acid, alpha-tocopherol and glutathione ([1]; idebenone 10 μmoles/liter vs ascorbic acid 50, alpha-tocopherol 100, glutathione 50 μmoles/liter): clearly stronger antioxidative effect; protection against loss of alpha-tocopherol and coenzyme Q-10 (tissue): protection against the loss of alpha-tocopherol and coenzyme Q-10; toxic effects [2]: no toxic effects
5 | Cc1c(C)c2c(c(C)c1O)CC[C@@](C)(CCC[C@H](C)CCC[C@H](C)CCCC(C)C)O2 [α-tocopherol, alpha-tocopherol] | – | – | – | – | – | – | – | – | – | lipid hydroperoxides ([1]; oxidation system A (Mk + LDL), 100 μmoles/litre antioxidant, 8 hours): 32.8 nmoles per mg of LDL protein; lipid hydroperoxides ([1]; oxidation system A (Mk + LDL), 100 μmoles/litre antioxidant, 24 hours): 198.0 nmoles per mg of LDL protein
